Patent US8952024B2, “Herbicidal pyrimidone derivatives” (E I du Pont de Nemours and Company, priority 2009, dated 2015)

Legend:
Format in all cases: in vivo
[1] = test system: winter barley (Hordeum vulgare); test: Test B postemergence plant response; conditions: for Barley plant response rating (0 to 100 scale): 62 g ai/ha, postemergence, 0 is no effect, 100 is complete control; for Plant response rating, Barley: Postemergence
Procedure, shortened: (§1)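 Plants at the 1- to 4-leaf stage (2 to 18 cm tall), grown in pots of peat moss/vermiculite medium with wetting agent and starter nutrients, received postemergence applications of test chemicals. After 13 to 15 days in a greenhouse, injury was rated visually against untreated controls on a 0 (no effect) to 100 (complete control) scale.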

[2] = test system: canarygrass (Phalaris minor); test: Test B postemergence plant response; conditions: for Plant response rating, Canarygrass: Postemergence
Procedure, shortened: as §1

[3] = test system: windgrass (Apera spica-venti); test: Test B postemergence plant response; conditions: for Plant response rating, Windgrass: Postemergence
Procedure, shortened: as §1

[4] = test system: chickweed (Stellaria media); test: Test B postemergence plant response; conditions: for Plant response rating, Chickweed: Postemergence
Procedure, shortened: as §1

[5] = test system: barnyardgrass (Echinochloa crus-galli); test: Test A pre-/postemergence plant response
Procedure, shortened: (§2)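 Seeds planted in loam soil/sand blend; test chemicals in non-phytotoxic solvent mixture with surfactant applied as directed soil spray preemergence and, concurrently, postemergence to plants 2–10 cm tall at one- to two-leaf stage. Greenhouse ~10 days; visual injury vs untreated controls, 0 (no effect) to 100 (complete control).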

corn (Zea mays) = test: Test A pre-/postemergence plant response
Procedure, shortened: as §2

[6] = test system: velvetleaf (Abutilon theophrasti); test: Test A pre-/postemergence plant response
Procedure, shortened: as §2

[7] = test system: wheat (Triticum aestivum); test: Test A pre-/postemergence plant response
Procedure, shortened: as §2

[8] = test system: morningglory (Ipomoea spp.); test: Test A pre-/postemergence plant response
Procedure, shortened: as §2

[9] = test system: large crabgrass (Digitaria sanguinalis); test: Test A pre-/postemergence plant response
Procedure, shortened: as §2

[10] = test system: pigweed (Amaranthus retroflexus); test: Test A pre-/postemergence plant response
Procedure, shortened: as §2

[11] = test system: giant foxtail (Setaria faberii); test: Test A pre-/postemergence plant response
Procedure, shortened: as §2

[12] = 31 g ai/ha, 0 to 100 scale (0 no effect, 100 complete control)
[13] = 125 g ai/ha, scale 0 to 100 (0 no effect, 100 complete control)
[14] = 250 g ai/ha, scale 0 to 100 (0 no effect, 100 complete control), 13 to 15 days
[15] = 62 g ai/ha, postemergence, 0 is no effect, 100 is complete control, 13 to 15 days
[16] = Postemergence, 125 g ai/ha, 0 to 100 scale where 0 is no effect and 100 is complete control
[17] = Postemergence, 500 g ai/ha, 0 to 100 scale, 0 = no effect, 100 = complete control, approx. ten days
[18] = Preemergence, 125 g ai/ha, 0 to 100 scale, 0 = no effect, 100 = complete control
[19] = Preemergence, 500 g ai/ha, visual injury, 0 to 100 scale (0 no effect, 100 complete control), approx. ten days
[20] = Preemergence, 500 g ai/ha, 0 to 100 scale, 0 = no effect, 100 = complete control

Structure (SMILES): CCCn1c(-c2cccc(C(F)(F)F)c2)ncc(C(=O)C2=C(O)CCCC2=O)c1=O [Compound 155]
- Barley plant response rating (0 to 100 scale) ([1]; 13 to 15 days): 30
- Plant response rating, Barley [1, 12]: 30
- Plant response rating, Barley [1, 13]: 45
- Plant response rating, Barley [1, 14]: 85
- Canarygrass plant response rating (0 to 100 scale) [2, 15]: 35
- Plant response rating, Canarygrass [2, 12]: 10
- Plant response rating, Canarygrass [2, 13]: 50
- Plant response rating, Canarygrass [2, 14]: 65
- Windgrass plant response rating (0 to 100 scale) [3, 15]: 55
- Plant response rating, Windgrass [3, 12]: 50
- Plant response rating, Windgrass [3, 13]: 70
- Plant response rating, Windgrass [3, 14]: 85
- Chickweed plant response rating (0 to 100 scale) [4, 15]: 100
- Plant response rating, Chickweed [4, 12]: 100
- Plant response rating, Chickweed [4, 13]: 100
- Plant response rating, Chickweed [4, 14]: 100
- Plant response rating, Barnyardgrass [5, 16]: 90
- Plant response rating, Barnyardgrass [5, 17]: 100
- Plant response rating, Barnyardgrass [5, 18]: 10
- Plant response rating, Barnyardgrass [5, 19]: 90
- Plant response rating, Corn (corn (Zea mays); [16]): 20
- Plant response rating, Corn (corn (Zea mays); [17]): 40
- Plant response rating, Corn (corn (Zea mays); [18]): 0
- Plant response rating, Corn (corn (Zea mays); [19]): 30
- Plant response rating, Velvetleaf [6, 16]: 100
- Plant response rating, Velvetleaf [6, 17]: 100
- Plant response rating, Velvetleaf [6, 18]: 60
- Plant response rating, Velvetleaf [6, 20]: 100
- Plant response rating, Wheat [7, 16]: 0
- Plant response rating, Wheat [7, 17]: 30
- Plant response rating, Wheat [7, 18]: 0
- Plant response rating, Wheat [7, 20]: 0
- Plant response rating, Morningglory [8, 16]: 100
- Plant response rating, Morningglory [8, 17]: 100
- Plant response rating, Morningglory [8, 18]: 0
- Plant response rating, Morningglory [8, 19]: 0
- Plant response rating, Crabgrass, Large [9, 16]: 70
- Plant response rating, Crabgrass, Large [9, 17]: 90
- Plant response rating, Crabgrass, Large [9, 18]: 60
- Plant response rating, Crabgrass, Large [9, 19]: 90
- Plant response rating, Pigweed [10, 16]: 100
- Plant response rating, Pigweed [10, 17]: 100
- Plant response rating, Pigweed [10, 18]: 90
- Plant response rating, Pigweed [10, 19]: 90
- Plant response rating, Foxtail, Giant [11, 16]: 80
- Plant response rating, Foxtail, Giant [11, 17]: 90
- Plant response rating, Foxtail, Giant [11, 18]: 30
- Plant response rating, Foxtail, Giant [11, 19]: 60

Structure (SMILES): CCCn1c(-c2cc(C)cc(C)c2)ncc(C(=O)C2=C(O)CCCC2=O)c1=O [Compound 156]
- Barley plant response rating (0 to 100 scale) ([1]; 13 to 15 days): 45
- Plant response rating, Barley [1, 12]: 30
- Plant response rating, Barley [1, 13]: 60
- Plant response rating, Barley [1, 14]: 85
- Plant response rating, Canarygrass [2, 12]: 15
- Plant response rating, Canarygrass [2, 13]: 40
- Plant response rating, Canarygrass [2, 14]: 60
- Plant response rating, Windgrass [3, 12]: 40
- Plant response rating, Windgrass [3, 13]: 55
- Plant response rating, Windgrass [3, 14]: 60
- Plant response rating, Chickweed [4, 12]: 80
- Plant response rating, Chickweed [4, 13]: 100
- Plant response rating, Chickweed [4, 14]: 100
- Plant response rating, Barnyardgrass [5, 16]: 90
- Plant response rating, Barnyardgrass [5, 17]: 90
- Plant response rating, Barnyardgrass [5, 18]: 0
- Plant response rating, Barnyardgrass [5, 19]: 80
- Plant response rating, Corn (corn (Zea mays); [16]): 20
- Plant response rating, Corn (corn (Zea mays); [17]): 20
- Plant response rating, Corn (corn (Zea mays); [18]): 0
- Plant response rating, Corn (corn (Zea mays); [19]): 20
- Plant response rating, Velvetleaf [6, 16]: 100
- Plant response rating, Velvetleaf [6, 17]: 100
- Plant response rating, Velvetleaf [6, 18]: 0
- Plant response rating, Velvetleaf [6, 20]: 50
- Plant response rating, Wheat [7, 16]: 0
- Plant response rating, Wheat [7, 17]: 20
- Plant response rating, Wheat [7, 18]: 0
- Plant response rating, Wheat [7, 20]: 0
- Plant response rating, Morningglory [8, 16]: 100
- Plant response rating, Morningglory [8, 17]: 100
- Plant response rating, Morningglory [8, 18]: 0
- Plant response rating, Morningglory [8, 19]: 0
- Plant response rating, Crabgrass, Large [9, 16]: 70
- Plant response rating, Crabgrass, Large [9, 17]: 80
- Plant response rating, Crabgrass, Large [9, 18]: 10
- Plant response rating, Crabgrass, Large [9, 19]: 50
- Plant response rating, Pigweed [10, 16]: 100
- Plant response rating, Pigweed [10, 17]: 100
- Plant response rating, Pigweed [10, 18]: 70
- Plant response rating, Pigweed [10, 19]: 80
- Plant response rating, Foxtail, Giant [11, 16]: 80
- Plant response rating, Foxtail, Giant [11, 17]: 90
- Plant response rating, Foxtail, Giant [11, 18]: 10
- Plant response rating, Foxtail, Giant [11, 19]: 50
